Assay: Plasma levels and pharmacokinetics of intravenous ITPP

For `O=P1(O)OC2C3OP(=O)(O)OP(=O)(O)OC3C3OP(=O)(O)OP(=O)(O)OC3C2OP(=O)(O)O1` (centres unmarked) [ITPP, Myo-inositol trispyrophosphate], the Tmax (cohort 1, 1866 mg/m2) was 6.0 h, the VSS (cohort 1, 1866 mg/m2) was 11.0 L and the “ITPP plasma levels: Concentration” value (cohort 1, patient 2, day 1, hour 0, sample 1_1_1) was 0 µg/mL. The “ITPP plasma levels: Concentration” value (cohort 1, patient 2, day 1, hour 3, sample 1_1_2) was 71.4 µg/mL, the “ITPP plasma levels: Concentration” value (cohort 1, patient 2, day 1, hour 6, sample 1_1_3) was 64.4 µg/mL and the “ITPP plasma levels: Concentration” value (cohort 1, patient 2, day 1, hour 8.5, sample 1_1_4) was 37.7 µg/mL. The “ITPP plasma levels: Concentration” value (cohort 1, patient 2, day 1, hour 9, sample 1_1_5) was 27.2 µg/mL, the “ITPP plasma levels: Concentration” value (cohort 1, patient 2, day 2, hour 0, sample 1_2_1) was 0 µg/mL and the “ITPP plasma levels: Concentration” value (cohort 1, patient 2, day 2, hour 9, sample 1_2_5) was 31.6 µg/mL. The “ITPP plasma levels: Concentration” value (cohort 1, patient 2, day 3, hour 0, sample 1_3_1) was 0 µg/mL, the “ITPP plasma levels: Concentration” value (cohort 1, patient 2, day 3, hour 9, sample 1_3_5) was 28.7 µg/mL and the “ITPP plasma levels: Concentration” value (cohort 1, patient 4, day 2, hour 9, sample 5_2_5) was 32.7 µg/mL. For the same compound, the “ITPP plasma levels: Concentration” value (cohort 1, patient 4, day 3, hour 0, sample 5_3_1) was 0 µg/mL, the “ITPP plasma levels: Concentration” value (cohort 1, patient 4, day 3, hour 9, sample 5_3_5) was 30.4 µg/mL and the “ITPP plasma levels: Concentration” value (cohort 1, patient 4, day 4, hour 0, sample 5_4_1) was 0 µg/mL. The “ITPP plasma levels: Concentration” value (cohort 1, patient 4, day 4, hour 9, sample 5_4_5) was 28.7 µg/mL, the “ITPP plasma levels: Concentration” value (cohort 1, patient 4, day 5, hour 0, sample 5_5_1) was 0 µg/mL and the “ITPP plasma levels: Concentration” value (cohort 1, patient 4, day 5, hour 3, sample 5_5_2) was 33.3 µg/mL. For the same compound, the “ITPP plasma levels: Concentration” value (cohort 1, patient 4, day 5, hour 6, sample 5_5_3) was 38.4 µg/mL, the “ITPP plasma levels: Concentration” value (cohort 1, patient 4, day 5, hour 8.5, sample 5_5_4) was 40.9 µg/mL and the “ITPP plasma levels: Concentration” value (cohort 1, patient 4, day 5, hour 9, sample 5_5_5) was 29.6 µg/mL. The “ITPP plasma levels: Concentration” value (cohort 1, patient 4, day 5, hour 10, sample 5_5_6) was 22 µg/mL, the “ITPP plasma levels: Concentration” value (cohort 1, patient 4, day 6, hour 0, sample 5_6_1) was 0 µg/mL and the “ITPP plasma levels: Concentration” value (cohort 1, patient 4, day 6, hour 9, sample 5_6_5) was 32.4 µg/mL. For the same compound, the “ITPP plasma levels: Concentration” value (cohort 1, patient 4, day 7, hour 0, sample 5_7_1) was 0 µg/mL, the “ITPP plasma levels: Concentration” value (cohort 1, patient 4, day 7, hour 9, sample 5_7_5) was 36.7 µg/mL and the “ITPP plasma levels: Concentration” value (cohort 1, patient 4, day 8, hour 0, sample 5_8_1) was 0 µg/mL. For the same compound, the “ITPP plasma levels: Concentration” value (cohort 1, patient 4, day 8, hour 9, sample 5_8_5) was 31.5 µg/mL, the “ITPP plasma levels: Concentration” value (cohort 1, patient 4, day 9, hour 0, sample 5_9_1) was 0 µg/mL and the “ITPP plasma levels: Concentration” value (cohort 1, patient 4, day 9, hour 3, sample 5_9_2) was 38.7 µg/mL. The “ITPP plasma levels: Concentration” value (cohort 1, patient 4, day 9, hour 6, sample 5_9_3) was 43.5 µg/mL, the “ITPP plasma levels: Concentration” value (cohort 1, patient 4, day 9, hour 8.5, sample 5_9_4) was 42.1 µg/mL and the “ITPP plasma levels: Concentration” value (cohort 1, patient 4, day 9, hour 9, sample 5_9_5) was 26.1 µg/mL. It also gave an AUC (cohort 2, 3732 mg/m2) of 847.4 mg·h/L, an AUMC (cohort 2, 3732 mg/m2) of 4925.6 h2*mg/L and a CL (cohort 2, 3732 mg/m2) of 3.8 L/h. For the same compound, the Clast (cohort 2, 3732 mg/m2) was 55.8 mg/L, the Cmax (cohort 2, 3732 mg/m2) was 120.6 mg/L and the Cmin (cohort 2, 3732 mg/m2) was 0.0 mg/L. For the same compound, the “Elimination rate λz” value (cohort 2, 3732 mg/m2) was 0.4 h⁻¹, the “Half life/T0.5” value (cohort 2, 3732 mg/m2) was 1.8 h and the MRT (cohort 2, 3732 mg/m2) was 1.8 h. For the same compound, the Tlast (cohort 2, 3732 mg/m2) was 10.0 h, the Tmax (cohort 2, 3732 mg/m2) was 6.0 h and the VSS (cohort 2, 3732 mg/m2) was 10.5 L. The “ITPP plasma levels: Concentration” value (cohort 2, patient 5, day 1, hour 0, sample 6_1_1) was 0 µg/mL, the “ITPP plasma levels: Concentration” value (cohort 2, patient 5, day 1, hour 3, sample 6_1_2) was 81 µg/mL and the “ITPP plasma levels: Concentration” value (cohort 2, patient 5, day 1, hour 6, sample 6_1_3) was 102 µg/mL. For the same compound, the “ITPP plasma levels: Concentration” value (cohort 2, patient 5, day 1, hour 8.5, sample 6_1_4) was 86.1 µg/mL, the “ITPP plasma levels: Concentration” value (cohort 2, patient 5, day 1, hour 9, sample 6_1_5) was 66.5 µg/mL and the “ITPP plasma levels: Concentration” value (cohort 2, patient 5, day 1, hour 10, sample 6_1_6) was 42.7 µg/mL. The “ITPP plasma levels: Concentration” value (cohort 2, patient 5, day 2, hour 0, sample 6_2_1) was 0 µg/mL, the “ITPP plasma levels: Concentration” value (cohort 2, patient 5, day 2, hour 9, sample 6_2_5) was 78.6 µg/mL and the “ITPP plasma levels: Concentration” value (cohort 2, patient 5, day 3, hour 0, sample 6_3_1) was 0 µg/mL. The “ITPP plasma levels: Concentration” value (cohort 2, patient 5, day 3, hour 9, sample 6_3_5) was 61.7 µg/mL, the “ITPP plasma levels: Concentration” value (cohort 2, patient 5, day 4, hour 0, sample 6_4_1) was 0 µg/mL and the “ITPP plasma levels: Concentration” value (cohort 2, patient 5, day 4, hour 9, sample 6_4_5) was 81.8 µg/mL. The “ITPP plasma levels: Concentration” value (cohort 2, patient 5, day 5, hour 0, sample 6_5_1) was 0 µg/mL, the “ITPP plasma levels: Concentration” value (cohort 2, patient 5, day 5, hour 3, sample 6_5_2) was 90.1 µg/mL and the “ITPP plasma levels: Concentration” value (cohort 2, patient 5, day 5, hour 6, sample 6_5_3) was 107 µg/mL. The “ITPP plasma levels: Concentration” value (cohort 2, patient 5, day 5, hour 8.5, sample 6_5_4) was 81.8 µg/mL, the “ITPP plasma levels: Concentration” value (cohort 2, patient 5, day 5, hour 9, sample 6_5_5) was 62.8 µg/mL and the “ITPP plasma levels: Concentration” value (cohort 2, patient 5, day 5, hour 10, sample 6_5_6) was 38.5 µg/mL. For the same compound, the “ITPP plasma levels: Concentration” value (cohort 2, patient 5, day 6, hour 0, sample 6_6_1) was 0 µg/mL, the “ITPP plasma levels: Concentration” value (cohort 2, patient 5, day 6, hour 9, sample 6_6_5) was 76.4 µg/mL and the “ITPP plasma levels: Concentration” value (cohort 2, patient 5, day 7, hour 0, sample 6_7_1) was 0 µg/mL. For the same compound, the “ITPP plasma levels: Concentration” value (cohort 2, patient 5, day 7, hour 9, sample 6_7_5) was 65.9 µg/mL, the “ITPP plasma levels: Concentration” value (cohort 2, patient 5, day 8, hour 0, sample 6_8_1) was 0 µg/mL and the “ITPP plasma levels: Concentration” value (cohort 2, patient 5, day 8, hour 9, sample 6_8_5) was 73.8 µg/mL. For the same compound, the “ITPP plasma levels: Concentration” value (cohort 2, patient 5, day 9, hour 0, sample 6_9_1) was 0 µg/mL, the “ITPP plasma levels: Concentration” value (cohort 2, patient 5, day 9, hour 3, sample 6_9_2) was 81.2 µg/mL and the “ITPP plasma levels: Concentration” value (cohort 2, patient 5, day 9, hour 6, sample 6_9_3) was 110 µg/mL. For the same compound, the “ITPP plasma levels: Concentration” value (cohort 2, patient 5, day 9, hour 8.5, sample 6_9_4) was 89.6 µg/mL, the “ITPP plasma levels: Concentration” value (cohort 2, patient 5, day 9, hour 9, sample 6_9_5) was 58.7 µg/mL and the “ITPP plasma levels: Concentration” value (cohort 2, patient 6, day 1, hour 0, sample 7_1_1) was 0 µg/mL. For the same compound, the “ITPP plasma levels: Concentration” value (cohort 2, patient 6, day 1, hour 3, sample 7_1_2) was 84.8 µg/mL, the “ITPP plasma levels: Concentration” value (cohort 2, patient 6, day 1, hour 6, sample 7_1_3) was 106 µg/mL and the “ITPP plasma levels: Concentration” value (cohort 2, patient 6, day 1, hour 8.5, sample 7_1_4) was 100 µg/mL. For the same compound, the “ITPP plasma levels: Concentration” value (cohort 2, patient 6, day 1, hour 9, sample 7_1_5) was 77.7 µg/mL, the “ITPP plasma levels: Concentration” value (cohort 2, patient 6, day 1, hour 10, sample 7_1_6) was 55.2 µg/mL and the “ITPP plasma levels: Concentration” value (cohort 2, patient 6, day 2, hour 0, sample 7_2_1) was 0 µg/mL. The “ITPP plasma levels: Concentration” value (cohort 2, patient 6, day 2, hour 9, sample 7_2_5) was 66.6 µg/mL, the “ITPP plasma levels: Concentration” value (cohort 2, patient 6, day 3, hour 0, sample 7_3_1) was 0 µg/mL and the “ITPP plasma levels: Concentration” value (cohort 2, patient 6, day 3, hour 9, sample 7_3_5) was 65.2 µg/mL. The “ITPP plasma levels: Concentration” value (cohort 2, patient 6, day 4, hour 0, sample 7_4_1) was 0 µg/mL, the “ITPP plasma levels: Concentration” value (cohort 2, patient 6, day 4, hour 9, sample 7_4_5) was 67.1 µg/mL and the “ITPP plasma levels: Concentration” value (cohort 2, patient 6, day 5, hour 0, sample 7_5_1) was 0 µg/mL. The “ITPP plasma levels: Concentration” value (cohort 2, patient 6, day 5, hour 3, sample 7_5_2) was 78.6 µg/mL, the “ITPP plasma levels: Concentration” value (cohort 2, patient 6, day 5, hour 6, sample 7_5_3) was 98 µg/mL and the “ITPP plasma levels: Concentration” value (cohort 2, patient 6, day 5, hour 8.5, sample 7_5_4) was 82.7 µg/mL. For the same compound, the “ITPP plasma levels: Concentration” value (cohort 2, patient 6, day 5, hour 9, sample 7_5_5) was 41.4 µg/mL, the “ITPP plasma levels: Concentration” value (cohort 2, patient 6, day 5, hour 10, sample 7_5_6) was 40.6 µg/mL and the “ITPP plasma levels: Concentration” value (cohort 2, patient 6, day 6, hour 0, sample 7_6_1) was 0 µg/mL. For the same compound, the “ITPP plasma levels: Concentration” value (cohort 2, patient 6, day 6, hour 9, sample 7_6_5) was 60.1 µg/mL, the “ITPP plasma levels: Concentration” value (cohort 2, patient 6, day 7, hour 0, sample 7_7_1) was 0 µg/mL and the “ITPP plasma levels: Concentration” value (cohort 2, patient 6, day 7, hour 9, sample 7_7_5) was 72.5 µg/mL. The “ITPP plasma levels: Concentration” value (cohort 2, patient 6, day 8, hour 0, sample 7_8_1) was 0 µg/mL, the “ITPP plasma levels: Concentration” value (cohort 2, patient 6, day 8, hour 9, sample 7_8_5) was 75.7 µg/mL and the “ITPP plasma levels: Concentration” value (cohort 2, patient 6, day 9, hour 0, sample 7_9_1) was 0 µg/mL. The “ITPP plasma levels: Concentration” value (cohort 2, patient 6, day 9, hour 3, sample 7_9_2) was 84.2 µg/mL, the “ITPP plasma levels: Concentration” value (cohort 2, patient 6, day 9, hour 6, sample 7_9_3) was 116 µg/mL and the “ITPP plasma levels: Concentration” value (cohort 2, patient 6, day 9, hour 8.5, sample 7_9_4) was 105 µg/mL. The “ITPP plasma levels: Concentration” value (cohort 2, patient 6, day 9, hour 9, sample 7_9_5) was 82 µg/mL, the “ITPP plasma levels: Concentration” value (cohort 2, patient 6, day 9, hour 10, sample 7_9_6) was 60.5 µg/mL and the “ITPP plasma levels: Concentration” value (cohort 2, patient 7, day 1, hour 0, sample 8_1_1) was 0 µg/mL. For the same compound, the “ITPP plasma levels: Concentration” value (cohort 2, patient 7, day 1, hour 3, sample 8_1_2) was 81.8 µg/mL, the “ITPP plasma levels: Concentration” value (cohort 2, patient 7, day 1, hour 6, sample 8_1_3) was 117 µg/mL and the “ITPP plasma levels: Concentration” value (cohort 2, patient 7, day 1, hour 8.5, sample 8_1_4) was 100 µg/mL. For the same compound, the “ITPP plasma levels: Concentration” value (cohort 2, patient 7, day 1, hour 9, sample 8_1_5) was 79.1 µg/mL and the “ITPP plasma levels: Concentration” value (cohort 2, patient 7, day 1, hour 10, sample 8_1_6) was 67.7 µg/mL.

— PMC8217170, “Phase Ib dose-escalation study of the hypoxia-modifier Myo-inositol trispyrophosphate in patients with hepatopancreatobiliary tumors” (Nature Communications, 2021)
